The record followed here is BindingDB's records for doi:10.1021/acs.jmedchem.9b01508 (Virginia Tech, 2020).

This test is described as follows: Inhibition of human SphK2 expressed in Saccharomyces cerevisiae KYA1 assessed as yeast growth measured after 24 hrs.

As usually defined, the EC50 is the concentration at which the effect is half-maximal. On to `N=C(N)N1CCC[C@H]1c1nc(-c2ccc(OCc3ccc(C(F)(F)F)cc3)c(C(F)(F)F)c2)no1`, for which the half-maximal effective concentration (EC50) worked out at 0.059 µM.

As to `CCCc1cc(-c2noc([C@@H]3CCCN3C(=N)N)n2)ccc1OCc1ccc(C(F)(F)F)cc1`, the 50% effective concentration (EC50) turned out to be 0.037 µM.

As for `N=C(N)N1CCC[C@H]1c1nc(-c2ccc(OCc3ccc(C(F)(F)F)cc3)c(C3CC3)c2)no1`, the EC50 came to 0.05 µM.

Turning to `CCc1cc(-c2noc([C@@H]3CCCN3C(=N)N)n2)ccc1OCc1ccc(C(F)(F)F)cc1`, the EC50 amounted to 0.146 µM.

Take `CC(C)c1cc(-c2noc([C@@H]3CCCN3C(=N)N)n2)ccc1OCc1ccc(C(F)(F)F)cc1`: the EC50 turned out to be 0.032 µM.

On to `CC(C)(C)c1cc(-c2noc([C@@H]3CCCN3C(=N)N)n2)ccc1OCc1ccc(C(F)(F)F)cc1`, for which the half-maximal effective concentration (EC50) was found to be 0.073 µM.

On to `C=CCc1cc(-c2noc([C@@H]3CCCN3C(=N)N)n2)ccc1OCc1ccc(C(F)(F)F)cc1`, for which the EC50 was determined as 0.084 µM.
